Experimental data from patent EP1289507B1, “USE OF AN ALDOSTERONE ANTAGONIST FOR THE TREATMENT OR PROPHYLAXIS OF ALDOSTERONE-MEDIATED PATHOGENIC EFFECTS” (priority 2000, dated 2001).

What was measured:
[1] = system: captopril-treated, saline-drinking SHRSP; assay: Protocol 2: Angiotensin II-induced renal damage in captopril-treated saline-drinking SHRSP; format: in vivo, male SHRSP/A3N
Experimental: (§1) Animals. Studies were conducted in accordance with institutional guidelines using male SHRSP/A3N (generations F-75 to F-78), n = 37, from our local colony. These animals were bred from NIH stock, derived from the SHRSP/A3N substrain described originally by Okamoto and coworkers (Okamoto K et al. Circ. Res. 34 and 35 (suppl I):I-143-I-153.). All animals were housed in a room maintained on a 12:12-h light:dark-cycle and an ambient temperature of 22 ± 1°C in the Animal Care Facility at New York Medical College. Rats were weaned at 4 weeks of age and allowed free access to Purina Lab Chow 5001 (Ralston Purina, St. Louis, MO) and tap water until the initiation of experimental protocols.
SHRSP were placed on Stroke-Prone Rodent Diet (#39-288, Zeigler Bros Inc., Gardners, PA) and 1% NaCl drinking solution ad libitum starting at 8.3 weeks of age. […] Animals were handled and weighed daily. Urine samples were collected for the assessment of proteinuria. Systolic blood pressure and heart rate were measured each week. After 2 weeks of treatment, animals were decapitated, trunk blood was collected into chilled EDTA tubes, and the kidneys were removed, blotted dry, and immediately weighed. Coronal sections of kidney were fixed and later processed for light microscopic evaluation.
(§2) Assays and Analyses. Systolic blood pressure and heart rate of awake animals were measured by tail-cuff plethysmography using a Natsume KN-210 manometer and tachometer (Peninsula Laboratories Inc., Belmont, CA). Rats were warmed at 37°C for 10 min and allowed to rest quietly in a Lucite chamber before measurement of blood pressure. Measurements of urine volume were made gravimetrically. Urinary protein concentration was determined by the sulfosalicylic acid turbidity method. Plasma aldosterone was measured by radioimmunoassay using ^125I-aldosterone as a tracer (Coat-a Count Aldosterone, Diagnostic Products Co., Los Angeles, CA).
(§3) Histology. Kidneys were preserved in 10% phosphate-buffered formalin. Coronal sections (2-3 µm) were stained with hematoxylin and eosin and examined by light microscopy in a blinded fashion as previously described (Stier CT et al. J Pharmacol Exp Ther (1992) 260:1410-1415). Glomerular damage was categorized as ischemic or thrombotic. Ischemic lesions were defined as retraction of glomerular capillary tufts with or without appreciable mesangiolysis. Glomerular thrombotic lesions were defined as any one of a combination of the following: segmental to global fibrinoid necrosis, focal thrombosis of glomerular capillaries, swelling and proliferation of intracapillary (endothelial and mesangial) and/or extracapillary cells (crescents), and expansion of reticulated mesangial matrix with or without significant hypercellularity. […] Vascular thrombotic lesions were defined as any one or a combination of the following: mural fibrinoid necrosis, extravasation and fragmentation of red blood cells, and luminal and/or mural thrombosis. Proliferative arteriopathy was characterized by proliferation of markedly swollen myointimal cells with swollen round to ovoid vesicular nuclei surrounded by mucinous extracellular matrix ("onion skinning") often resulting in nodular thickening. Vascular damage was expressed as the number of arteries and arterioles with lesions per 100 glomeruli. The presence of casts and tubular (ischemic) retraction and simplification was assessed semiquantitatively.
Statistical Analysis. Significant effects with respect to treatment and time were determined by two-way analysis of variance. Data with only one grouping variable were analyzed statistically by Student's unpaired t tests. When more than two groups were compared, one-way analysis of variance was performed followed by the post-hoc Newman-Keul's multiple comparison test. Data were analyzed using version 2.01 of the GraphPad Prism statistical software package (GraphPad Software Inc., San Diego, CA). P < .05 was considered statistically significant. Data are reported as mean ± SEM.

saline-drinking SHRSP = assay: Protocol 1: renal pathologic changes in saline-drinking SHRSP; format: in vivo, male SHRSP/A3N
Experimental: as §1
Eighteen SHRSP were given 1% NaCl to drink and were fed Stroke-Prone Rodent Diet (#39-288, Zeigler Brothers, Inc., Gardners, PA) starting at 8.1 weeks of age. […] Vehicle-control littermates received 2 ml/kg/d of the 0.5% methylcellulose solution. Animals were housed individually in metabolic cages so that measurements of 24-h urine output and protein excretion could be made. Animals were examined each day for neurologic signs of stroke. Systolic arterial pressure and heart rate were measured each week in awake rats. The experiment was terminated after 5 weeks of treatment when the animals were 13.1 weeks of age. Trunk blood was collected into chilled EDTA tubes following rapid decapitation of the animals between 10:00 am and 12:00 pm. Blood was stored at - 20°C for later measurement of plasma aldosterone levels. The kidneys were rapidly removed, weighed, and then preserved in fixative for later histologic examination.
as §2, §3
Statistical Analysis. Significant effects with respect to treatment and time were determined by two-way analysis of variance. Data with only one grouping variable were analyzed statistically by Student's unpaired t tests. […]

[2] = system: saline-loaded adrenalectomized rats treated with aldosterone; assay: Subcutaneous vs. oral administration: urinary Na/K in saline-loaded adrenalectomized rats treated with aldosterone; format: in vivo; details: antagonizing aldosterone-mediated renal effects
Experimental: Urinary sodium, potassium and water excretion were measured. The results are expressed as the ratio of excreted urinary sodium to potassium (Na/K) ± SEM.

[3] = Pharmacokinetics and absorption after IV and oral [14C]eplerenone in the rat; format: in vivo; details: for half-life / clearance: iv, IV 15 mg/kg; for half-life / clearance / Cmax / bioavailability: 15 mg/kg; for Cmax / bioavailability: po; for Cmax: Cmax of total eplerenone
Experimental: Plasma, urine and fecal samples were analyzed for total radioactivity.

[4] = captopril plus vehicle, or captopril plus angiotensin II plus eplerenone
[5] = oral eplerenone 100 mg/kg/d, preterminal

For `COC(=O)[C@@H]1CC2=CC(=O)CC[C@]2(C)[C@@]23O[C@@H]2C[C@@]2(C)[C@@H](CC[C@@]24CCC(=O)O4)[C@H]13` [Eplerenone, Pregn-4-ene-7,21-dicarboxylic acid, 9,11-epoxy-17-hydroxy-3-oxo-, γ-lactone, methyl ester, (7α, 11α, 17β)-], the “Glomerular damage, Ischemic” value ([1]; Captopril 50 mg/kg/d + vehicle, or CAP, Angiotensin II 25 ng/min + Eplerenone 100 mg/kg/d, 2 weeks) was 3.0 ± 1.0 lesions/100 glomeruli, the “Glomerular damage, Thrombotic” value ([1]; as Table A-8B, 2 weeks) was 1.0 ± 0.3 lesions/100 glomeruli and the “Glomerular damage, Total” value ([1]; as Table A-8B, 2 weeks) was 3.0 ± 1.0 lesions/100 glomeruli. The “Renal arteriopathy, Proliferative” value ([1]; as Table A-8B, 2 weeks) was 0.1 ± 0.1 lesions/100 glomeruli, the “Renal arteriopathy, Thrombotic” value ([1]; as Table A-8B, 2 weeks) was 4.0 ± 1.0 lesions/100 glomeruli and the “Renal arteriopathy, Total” value ([1]; as Table A-8B, 2 weeks) was 4.0 ± 1.0 lesions/100 glomeruli. The renal damage ([1]; captopril plus angiotensin II plus eplerenone 100 mg/kg/d) was 3 ± 1%, the “Preterminal systolic blood pressure” value [1, 4] was 231 ± 5 mm Hg and the “tubules with ischemic retraction and simplification” value [1, 4] was 2.5 ± 0.9%. The “proteinuria (urinary protein excretion)” value ([1]; end of study (2 weeks), captopril 50 mg/kg/d plus vehicle, or captopril plus angiotensin II 25 ng/min plus eplerenone 100 mg/kg/d) was 28 ± 5 mg/day, the “Glomerular damage, Ischemic” value (saline-drinking SHRSP; 100 mg/kg/d by gavage, 5 weeks) was 1.0 ± 1.0 lesions/100 glomeruli and the “Glomerular damage, Thrombotic” value (saline-drinking SHRSP; 100 mg/kg/d by gavage, 5 weeks) was 0.1 ± 0.1 lesions/100 glomeruli. The “Glomerular damage, Total” value (saline-drinking SHRSP; 100 mg/kg/d by gavage, 5 weeks) was 1.0 ± 1.0 lesions/100 glomeruli, the “Renal angiopathy, Proliferative” value (saline-drinking SHRSP; 100 mg/kg/d by gavage, 5 weeks) was 0.1 ± 0.1 lesions/100 glomeruli and the “Renal angiopathy, Thrombotic” value (saline-drinking SHRSP; 100 mg/kg/d by gavage, 5 weeks) was 1.0 ± 1.0 lesions/100 glomeruli. For the same compound, the “Renal angiopathy, Total” value (saline-drinking SHRSP; 100 mg/kg/d by gavage, 5 weeks) was 1.0 ± 1.0 lesions/100 glomeruli, the “Protein casts, % of tubules” value (saline-drinking SHRSP; 100 mg/kg/d, 5 weeks) was 0.11 ± 0.04% and the “tubules displaying ischemic retraction and simplification” value (saline-drinking SHRSP; 100 mg/kg/d, 5 weeks) was 0.5 ± 0.2%. For the same compound, the evidence of stroke (saline-drinking SHRSP; n = 9, P < .01 vs vehicle) was “none”, the renal lesions (saline-drinking SHRSP; oral eplerenone 100 mg/kg/d for 5 to 6 weeks) was 1 ± 1% and the “proteinuria (urinary protein excretion)” value (saline-drinking SHRSP; [5]) was 16 ± 2 mg/day. For the same compound, the “severe hypertension (systolic blood pressure)” value (saline-drinking SHRSP; [5]) was 219 ± 6 mm Hg, the “efficacy of subcutaneous injection vs oral administration” value [2] was “better efficacy than oral administration” and the “systemic availability of total radioactivity” value ([3]; oral 15 mg/kg, female rat) was 66.4%. The “mean Cmax of total radioactivity” value ([3]; oral 15 mg/kg, female rats) was 7.67 µg equivalents/mL, the “systemic availability of total radioactivity” value ([3]; oral 15 mg/kg, male rat) was 59.6% and the “mean Cmax of total radioactivity” value ([3]; oral 15 mg/kg, male rats) was 7.64 µg equivalents/mL. It also gave a half-life ([3]; rat, plasma, elimination half-life of eplerenone, female rat) of 1.14 h, a half-life ([3]; rat, plasma, elimination half-life of total eplerenone, female rat, closed plus open form) of 1.14 h and a half-life ([3]; rat, plasma, elimination half-life of total eplerenone, male rat, lactone ring closed form plus open form) of 1.01 h. The clearance ([3]; rat, plasma, plasma clearance (CL) of eplerenone, female rat) was 20 mL/min/kg, the clearance ([3]; rat, plasma, plasma clearance (CL) of total eplerenone, female rat) was 11.6 mL/min/kg and the clearance ([3]; rat, plasma, plasma clearance (CL) of total eplerenone, male rat) was 16.4 mL/min/kg. It also gave a Cmax ([3]; rat, plasma, oral 15 mg/kg, female rat) of 6350 ng/mL, a Cmax ([3]; rat, plasma, oral 15 mg/kg, male rat) of 3200 ng/mL and a bioavailability ([3]; rat, plasma, systemic availability of eplerenone, oral 15 mg/kg, female rat) of 66.1%. For the same compound, the bioavailability ([3]; rat, plasma, systemic availability of eplerenone, oral 15 mg/kg, male rat) was 25.6%, the bioavailability ([3]; rat, plasma, systemic availability of total eplerenone, oral 15 mg/kg, female rat) was 74.2% and the bioavailability ([3]; rat, plasma, systemic availability of total eplerenone, oral 15 mg/kg, male rat) was 29.4%. It also gave a Tmax ([3]; rat, plasma, oral 15 mg/kg, male rats) of 0.5 h.
